Data from patent US20140271716A1, “Intra-testicular Injection of Immunogens” (priority 2013, published 2014).

How the values were obtained:
[1] = Zinc level in blood after intramuscular injection of zinc acetate; conditions: pigs, intramuscular 30 mg/kg
[2] = Zinc level in blood after intra-testicular injection of zinc acetate; conditions: pigs; for Zinc Concentration in blood: intra-testicular 0.5 ml (74 mg/ml) each testis

## CC(=O)[O-].CC(=O)[O-].[Zn+2] [zinc acetate]
[1]; 0 Min (physiological level)
  Zinc Concentration in blood: 45.3 μ mol/L
[1]; 30 min
  Zinc Concentration in blood: 194.08 μ mol/L
[1]; 1 hr.
  Zinc Concentration in blood: 76.17 μ mol/L
[1]; 2 hr.
  Zinc Concentration in blood: 67.4 μ mol/L
[1]; 3 hr.
  Zinc Concentration in blood: 65.22 μ mol/L
[1]; 4 hr.
  Zinc Concentration in blood: 62.8 μ mol/L
[1]; 6 hr.
  Zinc Concentration in blood: 61.6 μ mol/L
[1]; 8 hr.
  Zinc Concentration in blood: 60.8 μ mol/L
[1]; 12 hr.
  Zinc Concentration in blood: 54.3 μ mol/L
[1]; 16 hr.
  Zinc Concentration in blood: 48.7 μ mol/L
[1]; 24 hr.
  Zinc Concentration in blood: 47.3 μ mol/L
[1]; 36 hr.
  Zinc Concentration in blood: 44.5 μ mol/L
[1]; 48 hr.
  Zinc Concentration in blood: 44.2 μ mol/L
[2]; intra-testicular
  mean residence time: ~60 h
  time of second absorption phase after injection: 24 h
[2]; 0 Min (taken as zero)
  Zinc Concentration in blood: 0 μ mol/L
[2]; 30 Min
  Zinc Concentration in blood: 8.44 μ mol/L
[2]; 1 hr.
  Zinc Concentration in blood: 7.49 μ mol/L
[2]; 2 hr.
  Zinc Concentration in blood: 5.65 μ mol/L
[2]; 3 hr.
  Zinc Concentration in blood: 5.27 μ mol/L
[2]; 4 hr.
  Zinc Concentration in blood: 4.96 μ mol/L
[2]; 6 hr.
  Zinc Concentration in blood: 4.06 μ mol/L
[2]; 8 hr.
  Zinc Concentration in blood: 4.43 μ mol/L
[2]; 12 hr.
  Zinc Concentration in blood: 3.87 μ mol/L
[2]; 24 hr.
  Zinc Concentration in blood: 4.43 μ mol/L
[2]; 48 hr.
  Zinc Concentration in blood: 3.11 μ mol/L
[2]; 72 hr.
  Zinc Concentration in blood: −0.36 μ mol/L
[2]; 96 hr.
  Zinc Concentration in blood: −0.29 μ mol/L
